These results are taken from paper PMC10716637 (RSC Advances, 2023).

The term IC50 denotes the concentration needed to halve the response being measured. One may read the CC50 as the concentration that lowers cell viability or growth by half. Higher therefore signals lower toxicity to the cells. By EC50 is commonly meant the concentration that produces a half-maximal response.

SMILES strings stand for the structures.

For data set [1], the target named is EGFR^T790M (Homo sapiens, UniProt P00533, T790M). Description: In vitro EGFR^T790M kinase inhibitory assay. In kind it is biochemical.
EGFR^T790M, sequence (P00533 25-1210 T790M): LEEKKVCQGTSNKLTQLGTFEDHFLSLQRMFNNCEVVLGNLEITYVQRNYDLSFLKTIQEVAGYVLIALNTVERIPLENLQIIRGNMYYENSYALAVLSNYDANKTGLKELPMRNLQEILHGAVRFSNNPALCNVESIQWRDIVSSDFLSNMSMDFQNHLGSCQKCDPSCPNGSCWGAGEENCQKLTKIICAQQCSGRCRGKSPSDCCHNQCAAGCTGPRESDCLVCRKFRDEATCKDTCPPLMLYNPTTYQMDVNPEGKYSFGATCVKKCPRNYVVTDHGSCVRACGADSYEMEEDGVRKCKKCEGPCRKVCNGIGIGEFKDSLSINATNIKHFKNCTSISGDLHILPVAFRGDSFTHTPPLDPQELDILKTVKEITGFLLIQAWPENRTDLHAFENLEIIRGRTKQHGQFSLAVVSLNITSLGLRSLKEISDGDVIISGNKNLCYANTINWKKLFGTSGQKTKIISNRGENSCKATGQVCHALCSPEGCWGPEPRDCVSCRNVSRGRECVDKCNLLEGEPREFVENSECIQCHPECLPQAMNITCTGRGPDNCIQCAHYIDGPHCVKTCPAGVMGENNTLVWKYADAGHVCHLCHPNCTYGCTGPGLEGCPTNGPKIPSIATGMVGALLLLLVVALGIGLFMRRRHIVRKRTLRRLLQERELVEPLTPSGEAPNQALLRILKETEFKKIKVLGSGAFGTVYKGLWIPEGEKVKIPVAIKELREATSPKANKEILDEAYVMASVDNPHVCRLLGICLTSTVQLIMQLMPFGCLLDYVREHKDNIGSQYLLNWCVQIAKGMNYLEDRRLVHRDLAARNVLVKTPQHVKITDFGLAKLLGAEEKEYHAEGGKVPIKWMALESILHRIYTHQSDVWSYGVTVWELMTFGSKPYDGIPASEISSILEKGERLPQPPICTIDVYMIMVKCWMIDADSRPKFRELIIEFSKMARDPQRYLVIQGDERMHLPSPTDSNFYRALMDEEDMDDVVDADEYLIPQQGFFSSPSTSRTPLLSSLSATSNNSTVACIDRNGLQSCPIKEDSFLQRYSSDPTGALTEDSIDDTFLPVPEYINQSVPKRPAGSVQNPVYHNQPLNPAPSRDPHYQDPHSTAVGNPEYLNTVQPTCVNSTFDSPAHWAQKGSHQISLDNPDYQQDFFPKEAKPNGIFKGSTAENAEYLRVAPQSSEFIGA
In data set [2] the target is VEGFR-2 (Homo sapiens, UniProt P35968). Description: In vitro VEGFR-2 kinase inhibitory assay. In kind it is biochemical.
VEGFR-2, sequence (P35968 20-1356): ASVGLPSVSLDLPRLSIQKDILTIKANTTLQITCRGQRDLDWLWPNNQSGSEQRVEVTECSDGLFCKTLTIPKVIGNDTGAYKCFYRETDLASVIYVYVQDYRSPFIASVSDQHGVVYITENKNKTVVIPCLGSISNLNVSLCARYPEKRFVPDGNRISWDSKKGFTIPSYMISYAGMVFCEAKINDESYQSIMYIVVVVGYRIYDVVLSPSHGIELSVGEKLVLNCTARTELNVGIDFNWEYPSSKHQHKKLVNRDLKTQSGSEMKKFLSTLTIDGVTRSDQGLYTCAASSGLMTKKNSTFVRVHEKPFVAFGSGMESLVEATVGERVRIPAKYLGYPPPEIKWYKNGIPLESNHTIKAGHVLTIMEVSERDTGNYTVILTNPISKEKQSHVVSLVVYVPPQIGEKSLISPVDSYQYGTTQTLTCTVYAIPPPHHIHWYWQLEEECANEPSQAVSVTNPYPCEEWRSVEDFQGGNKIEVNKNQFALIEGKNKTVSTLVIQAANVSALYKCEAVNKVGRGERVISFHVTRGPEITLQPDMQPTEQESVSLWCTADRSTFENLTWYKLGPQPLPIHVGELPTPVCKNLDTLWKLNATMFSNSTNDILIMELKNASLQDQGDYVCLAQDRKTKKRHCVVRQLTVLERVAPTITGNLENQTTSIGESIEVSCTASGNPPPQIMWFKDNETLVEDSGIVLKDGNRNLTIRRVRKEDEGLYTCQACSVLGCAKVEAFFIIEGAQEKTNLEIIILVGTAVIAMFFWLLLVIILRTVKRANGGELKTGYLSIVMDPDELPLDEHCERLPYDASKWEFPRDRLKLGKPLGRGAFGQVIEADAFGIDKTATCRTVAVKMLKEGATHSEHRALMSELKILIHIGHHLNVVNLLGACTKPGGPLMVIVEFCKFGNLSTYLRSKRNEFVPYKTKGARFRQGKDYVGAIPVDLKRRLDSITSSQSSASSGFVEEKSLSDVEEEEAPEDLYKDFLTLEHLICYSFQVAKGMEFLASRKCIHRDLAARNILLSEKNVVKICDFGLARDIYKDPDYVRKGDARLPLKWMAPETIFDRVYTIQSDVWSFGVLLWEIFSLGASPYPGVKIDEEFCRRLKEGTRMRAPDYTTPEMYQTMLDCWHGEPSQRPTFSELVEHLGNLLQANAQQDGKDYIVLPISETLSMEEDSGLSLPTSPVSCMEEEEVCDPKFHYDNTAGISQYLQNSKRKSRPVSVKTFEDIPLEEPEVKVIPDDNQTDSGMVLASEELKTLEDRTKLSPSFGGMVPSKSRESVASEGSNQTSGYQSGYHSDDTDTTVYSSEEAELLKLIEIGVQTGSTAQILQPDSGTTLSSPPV
Data set [3] can be described thus: Cytotoxicity against VERO normal cell lines. Particulars: African green monkey, VERO normal cells.
The target in data set [4] is EGFR^WT (Homo sapiens, UniProt P00533). Description: In vitro EGFR^WT kinase inhibitory assay. In kind it is biochemical.
EGFR^WT, sequence (P00533 25-1210): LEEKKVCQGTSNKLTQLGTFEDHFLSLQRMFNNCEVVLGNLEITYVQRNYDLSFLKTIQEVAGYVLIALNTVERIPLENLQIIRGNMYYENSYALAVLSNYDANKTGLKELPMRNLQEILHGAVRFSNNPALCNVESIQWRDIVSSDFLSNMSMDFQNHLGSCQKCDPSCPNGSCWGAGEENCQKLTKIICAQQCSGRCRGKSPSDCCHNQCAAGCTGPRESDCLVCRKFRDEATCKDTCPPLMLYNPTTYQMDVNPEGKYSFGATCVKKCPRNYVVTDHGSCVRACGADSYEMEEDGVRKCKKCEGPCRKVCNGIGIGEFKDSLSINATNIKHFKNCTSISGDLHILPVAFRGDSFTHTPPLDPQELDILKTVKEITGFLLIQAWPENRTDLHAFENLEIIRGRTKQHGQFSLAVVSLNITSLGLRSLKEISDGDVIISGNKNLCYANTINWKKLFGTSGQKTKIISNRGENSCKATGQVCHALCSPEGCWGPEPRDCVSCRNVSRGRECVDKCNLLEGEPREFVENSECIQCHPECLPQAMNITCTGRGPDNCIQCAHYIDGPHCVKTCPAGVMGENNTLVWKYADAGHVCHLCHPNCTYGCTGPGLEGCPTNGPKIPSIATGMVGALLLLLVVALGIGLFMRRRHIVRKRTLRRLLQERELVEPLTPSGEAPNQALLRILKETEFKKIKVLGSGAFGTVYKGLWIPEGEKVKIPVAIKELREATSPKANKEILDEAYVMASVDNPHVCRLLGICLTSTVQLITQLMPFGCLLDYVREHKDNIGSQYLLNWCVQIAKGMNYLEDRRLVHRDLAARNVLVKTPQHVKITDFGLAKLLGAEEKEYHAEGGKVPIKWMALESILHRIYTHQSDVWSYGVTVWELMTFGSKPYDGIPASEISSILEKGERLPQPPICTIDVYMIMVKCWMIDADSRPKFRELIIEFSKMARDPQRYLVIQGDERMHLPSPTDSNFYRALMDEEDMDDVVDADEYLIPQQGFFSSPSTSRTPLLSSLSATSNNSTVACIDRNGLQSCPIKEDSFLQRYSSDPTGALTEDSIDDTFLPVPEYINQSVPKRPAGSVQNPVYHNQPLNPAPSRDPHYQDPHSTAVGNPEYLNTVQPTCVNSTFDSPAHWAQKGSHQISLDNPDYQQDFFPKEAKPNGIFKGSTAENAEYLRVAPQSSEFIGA
The subject of data set [5] is HepG2. Nature of the data set: MTT cytotoxicity assay, HepG2. Particulars: for Selectivity index (SI): folds more toxic respecting HepG2 than normal VERO cells: CC50 VERO vs EC50 HepG2; for EC50: Homo sapiens, HepG2, read-out: EC50 HepG2. In kind it is cell-based, human. A general note: Tetrazolium assays rely on reduction of a dye to a coloured formazan, in cell work by metabolically active cells.

The test system of data set [6] is MCF-7. Nature of the data set: MTT cytotoxicity assay, MCF-7. In kind it is cell-based, human. The following applies: for Selectivity index (SI): folds toxic in MCF-7 than in normal VERO cells: CC50 VERO vs EC50 MCF-7; for EC50: Homo sapiens, MCF7, read-out: EC50 MCF-7.
The test system of data set [7] is A549. Description: MTT cytotoxicity assay, A549. In kind it is cell-based, human. The following applies: for Selectivity index (SI): folds toxicity in A549 than in VERO cells: CC50 VERO vs EC50 A549; for EC50: Homo sapiens, A549, read-out: EC50 A549.
The test system of data set [8] is HCT116. Description: MTT cytotoxicity assay, HCT116. The data set is classed as cell-based, human. Particulars: for Selectivity index (SI): folds lethalness in HCT-116 than in VERO cells: CC50 VERO vs EC50 HCT-116; for EC50: Homo sapiens, HCT-116, read-out: EC50 HCT116.

As to `CCn1c(=O)n(CC(=O)Nc2ccc(C(=O)NN=Cc3ccc(C)cc3)cc2)c(=O)c2cc(I)ccc21` [Compound 9b, 2-[1-Ethyl-6-iodo-2,4-dioxo-1,4-dihydroquinazolin-3(2H)-yl]-N-{4-[2-(4-methylbenzylidene)hydrazine-1-carbonyl]phenyl}acetamide], the IC50 in data set [1] was found to be 0.5 ± 0.35 µM; in data set [2], 0.9 ± 0.1 µM; in data set [4] it was 0.35 ± 0.03 µM. Also, in data set [3], the CC50 is 49.2 ± 0.5 µM. Also, the “Selectivity index (SI): folds more toxic respecting HepG2 than normal VERO cells” value in data set [5] worked out at 7.94 folds. For the same molecule, the EC50 in data set [5] is 6.2 ± 0.7 µM; in data set [6], 6.7 ± 0.6 µM; in data set [7], 6.75 ± 0.6 µM; in data set [8] it was 5.93 ± 0.6 µM. In data set [6], the “Selectivity index (SI): folds toxic in MCF-7 than in normal VERO cells” value stood at 7.35 folds. The “Selectivity index (SI): folds toxicity in A549 than in VERO cells” value (shortened to “Selectivity index (SI): folds toxicity”) in data set [7] is recorded as 7.30 folds. Also, the “Selectivity index (SI): folds lethalness in HCT-116 than in VERO cells” value (from here on “Selectivity index (SI): folds lethalness”) in data set [8] is given as 8.31 folds.
For `CCCn1c(=O)n(CC(=O)Nc2ccc(C(=O)NN=Cc3ccc(Cl)cc3)cc2)c(=O)c2cc(I)ccc21` [Compound 9e, N-{4-[2-(4-chlorobenzylidene)hydrazine-1-carbonyl]phenyl}-2-{6-iodo-2,4-dioxo-1-propyl-1,4-dihydroquinazolin-3(2H)-yl}acetamide], the 50% inhibitory concentration (IC50) in data set [1] worked out at 0.3 ± 0.3 µM; in data set [2] it was 1.2 ± 0.1 µM; in data set [4], 0.25 ± 0.03 µM. Moreover, the cytotoxic concentration (CC50) in data set [3] worked out at 46 ± 0.5 µM. The “Selectivity index (SI): folds more toxic respecting HepG2 than normal VERO cells” value in data set [5] came to 6.25 folds. Further, the EC50 in data set [5] amounted to 7.36 ± 0.7 µM; in data set [6] it was 7.3 ± 0.7 µM; in data set [7] it was 6.3 ± 0.7 µM; in data set [8], 6.7 ± 0.7 µM. Moreover, in data set [6], the “Selectivity index (SI): folds toxic in MCF-7 than in normal VERO cells” value stood at 6.30 folds. The “Selectivity index (SI): folds toxicity” value in data set [7] turned out to be 7.30 folds. Moreover, in data set [8], the “Selectivity index (SI): folds lethalness” value is on record as 6.87 folds.
As for `CCCn1c(=O)n(CC(=O)Nc2ccc(C(=O)OCC)cc2)c(=O)c2cc(I)ccc21` [Compound 5d, Ethyl 4-{2-[6-iodo-2,4-dioxo-1-propyl-1,4-dihydroquinazolin-3(2H)-yl]acetamido}benzoate], the IC50 in data set [1] came to 0.4 ± 0.35 µM; in data set [2], 1.25 ± 0.1 µM; in data set [4], 0.32 ± 0.03 µM. In data set [3], the CC50 stood at 46.6 ± 0.5 µM. For the same molecule, in data set [5], the “Selectivity index (SI): folds more toxic respecting HepG2 than normal VERO cells” value was 6.21 folds. Moreover, the EC50 in data set [5] turned out to be 7.5 ± 0.7 µM; in data set [6] it was 7.37 ± 0.7 µM; in data set [7], 6.68 ± 0.7 µM; in data set [8], 6.52 ± 0.7 µM. Further, the “Selectivity index (SI): folds toxic in MCF-7 than in normal VERO cells” value in data set [6] was determined as 6.32 folds. In addition, the “Selectivity index (SI): folds toxicity” value in data set [7] amounted to 6.98 folds. Moreover, the “Selectivity index (SI): folds lethalness” value in data set [8] is reported as 7.15 folds.
For `CCCn1c(=O)n(CC(=O)Nc2ccc(C(=O)NN=Cc3ccccc3)cc2)c(=O)c2cc(I)ccc21` [Compound 9d, N-[4-(2-benzylidenehydrazine-1-carbonyl)phenyl]-2-[6-iodo-2,4-dioxo-1-propyl-1,4-dihydroquinazolin-3(2H)-yl]acetamide], the 50% inhibitory concentration (IC50) in data set [1] was 0.26 ± 0.3 µM; in data set [2], 0.9 ± 0.1 µM; in data set [4] it was 0.2 ± 0.03 µM. Further, the CC50 in data set [3] turned out to be 50.39 ± 0.5 µM. In addition, the “Selectivity index (SI): folds more toxic respecting HepG2 than normal VERO cells” value in data set [5] is 8.92 folds. Further, the half-maximal effective concentration (EC50) in data set [5] was determined as 5.65 ± 0.5 µM; in data set [6], 6.45 ± 0.5 µM; in data set [7], 5.48 ± 0.5 µM; in data set [8] it was 6.5 ± 0.5 µM. Besides, the “Selectivity index (SI): folds toxic in MCF-7 than in normal VERO cells” value in data set [6] came to 7.81 folds. Also, the “Selectivity index (SI): folds toxicity” value in data set [7] is 9.20 folds. In data set [8], the “Selectivity index (SI): folds lethalness” value turned out to be 7.75 folds.
